Data as given in patent US7138361B2, “Herbicidal heterocycles” (E. I. du Pont de Nemours and Company, priority 2000, dated 2006).

Columns and labels:
Assay in all cases: Test C preemergence
Assay type in all cases: in vivo
Nightshade [1] = tested on: Nightshade
Sunflower = details: Rate 125 g/ha; scale 0 to 100, 0 no effect, 100 complete control
[2] = tested on: Surinam grass (Brachiaria decumbens); details: for Plant response rating (0 to 100), Surinam grass: Rate 500 g/ha, visual evaluation after 12 to 14 days
Method in brief: (§1)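 Each compound was dissolved in a non-phytotoxic solvent system containing a surfactant and sprayed either on freshly planted seeds (preemergence) or on young plants, 2 to 18 cm high (postemergence). Ratings after 12 to 14 greenhouse days ran from 0, no effect, to 100, complete control.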

[3] = tested on: bermudagrass (Cynodon dactylon); details: for Plant response rating (0 to 100 where 0 is no effect and 100 is complete control), Bermudagrass: Rate 500 g/ha, visual evaluation after 12 to 14 days
Method in brief: as §1

[4] = tested on: cocklebur (Xanthium strumarium); details: for Plant response rating (0 to 100), Cocklebur: Rate 500 g/ha, visual evaluation after 12 to 14 days
Method in brief: as §1

[5] = tested on: common ragweed (Ambrosia elatior); details: for Plant response rating (0 to 100), Ragweed, Common: Rate 500 g/ha, visual evaluation after 12 to 14 days
Method in brief: as §1

corn (Zea mays) = details: for Plant response rating (0 to 100), Corn: Rate 500 g/ha, visual evaluation after 12 to 14 days
Method in brief: as §1

[6] = tested on: crabgrass (Digitaria sanguinalis); details: for Plant response rating (0 to 100), Crabgrass: Rate 500 g/ha, visual evaluation after 12 to 14 days
Method in brief: as §1

[7] = tested on: giant foxtail (Setaria faberii); details: for Plant response rating (0 to 100), Foxtail, Giant: Rate 500 g/ha, visual evaluation after 12 to 14 days
Method in brief: as §1

[8] = tested on: goosegrass (Eleusine indica); details: for Plant response rating (0 to 100), Goosegrass: Rate 500 g/ha, visual evaluation after 12 to 14 days
Method in brief: as §1

[9] = tested on: johnsongrass (Sorghum halepense); details: for Plant response rating (0 to 100), Johnsongrass: Rate 500 g/ha, visual evaluation after 12 to 14 days
Method in brief: as §1

kochia (Kochia scoparia) = details: for Plant response rating (0 to 100), Kochia: Rate 500 g/ha, visual evaluation after 12 to 14 days
Method in brief: as §1

[10] = tested on: lambsquarters (Chenopodium album); details: for Plant response rating (0 to 100), Lambsquarters: Rate 500 g/ha, visual evaluation after 12 to 14 days
Method in brief: as §1

[11] = tested on: morningglory (Ipomoea hederacea); details: for Plant response rating (0 to 100), Morningglory: Rate 500 g/ha, visual evaluation after 12 to 14 days
Method in brief: as §1

[12] = tested on: pigweed (Amaranthus retroflexus); details: for Plant response rating (0 to 100), Pigweed: Rate 500 g/ha, visual evaluation after 12 to 14 days
Method in brief: as §1

soybean (Glycine max) = tested on: soybean (Glycine max)
Method in brief: as §1

[13] = tested on: velvetleaf (Abutilon theophrasti); details: for Plant response rating (0 to 100), Velvetleaf: Rate 500 g/ha, visual evaluation after 12 to 14 days
Method in brief: as §1

[14] = tested on: woolly cupgrass (Eriochloa villosa); details: for Plant response rating (0 to 100), Cupgrass, Woolly: Rate 500 g/ha, visual evaluation after 12 to 14 days
Method in brief: as §1

[15] = tested on: yellow nutsedge (Cyperus esculentus); details: for Plant response rating (0 to 100), Nutsedge: Rate 500 g/ha, visual evaluation after 12 to 14 days
Method in brief: as §1

Nightshade [16] = details: Rate 500 g/ha, visual evaluation after 12 to 14 days
[17] = Rate 125 g/ha, scale 0 to 100, 0 no effect, 100 complete control
[18] = Rate 250 g/ha, scale 0 to 100, 0 no effect, 100 complete control
[19] = preemergence, Rate 62 g/ha, scale 0 to 100
[20] = preemergence, Rate 250 g/ha, scale 0 to 100, 0 no effect, 100 complete control

CCOc1cccc(N2CCC(n3ccc(C(C)C)n3)C2=O)c1 (stereo not shown) [Compound 128]
0: Plant response rating, Cocklebur [4, 19] | Plant response rating, Corn (corn (Zea mays); [19])
100: Plant response rating, Sunflower (Sunflower) | Plant response rating, Surinam grass [2, 17] | Plant response rating (0 to 100), Surinam grass ([2]; preemergence) | Plant response rating, Surinam grass [2, 20] | Plant response rating, Bermudagrass [3, 17] | Plant response rating, Bermudagrass [3, 19] | Plant response rating (0 to 100 where 0 is no effect and 100 is complete control), Bermudagrass ([3]; preemergence) | Plant response rating, Bermudagrass [3, 20] | Plant response rating, Ragweed, Common [5, 17] | Plant response rating, Ragweed, Common [5, 19] | Plant response rating (0 to 100), Ragweed, Common ([5]; preemergence) | Plant response rating, Ragweed, Common [5, 20] | Plant response rating, Crabgrass [6, 17] | Plant response rating, Crabgrass [6, 19] | Plant response rating (0 to 100), Crabgrass ([6]; preemergence) | Plant response rating, Crabgrass [6, 20] | Plant response rating (0 to 100), Foxtail, Giant ([7]; preemergence) | Plant response rating, Goosegrass [8, 17] | Plant response rating, Goosegrass [8, 19] | Plant response rating (0 to 100), Goosegrass ([8]; preemergence) | Plant response rating, Goosegrass [8, 20] | Plant response rating (0 to 100), Johnsongrass ([9]; preemergence) | Plant response rating, Johnsongrass [9, 20] | Plant response rating, Kochia (kochia (Kochia scoparia); [17]) | Plant response rating, Kochia (kochia (Kochia scoparia); [19]) | Plant response rating (0 to 100), Kochia (kochia (Kochia scoparia); preemergence) | Plant response rating, Kochia (kochia (Kochia scoparia); [20]) | Plant response rating, Lambsquarters [10, 17] | Plant response rating, Lambsquarters [10, 19] | Plant response rating (0 to 100), Lambsquarters ([10]; preemergence) | Plant response rating, Lambsquarters [10, 20] | Plant response rating (0 to 100), Pigweed ([12]; preemergence) | Plant response rating, Cupgrass, Woolly [14, 17] | Plant response rating, Cupgrass, Woolly [14, 19] | Plant response rating (0 to 100), Cupgrass, Woolly ([14]; preemergence) | Plant response rating, Cupgrass, Woolly [14, 20] | Plant response rating (0 to 100), Nutsedge ([15]; preemergence) | Plant response rating, Nutsedge [15, 20] | Plant response rating (0 to 100), Nightshade (Nightshade [16])
90: Plant response rating, Nightshade (Nightshade [1]; [18]) | Plant response rating, Surinam grass [2, 19] | Plant response rating, Foxtail, Giant [7, 17] | Plant response rating, Foxtail, Giant [7, 20] | Plant response rating, Johnsongrass [9, 17]
30: Plant response rating, Morningglory [11, 19] | Plant response rating, Velvetleaf [13, 20]
10: Plant response rating, Cocklebur [4, 17] | Plant response rating, Velvetleaf [13, 19]
60: Plant response rating (0 to 100), Corn (corn (Zea mays); preemergence) | Plant response rating, Johnsongrass [9, 19] | Plant response rating, Morningglory [11, 17] | Plant response rating, Soybean (soybean (Glycine max); [20])
50: Plant response rating (0 to 100), Velvetleaf ([13]; preemergence)
20: Plant response rating, Nightshade (Nightshade [1]; Rate 62 g/ha, scale 0 to 100) | Plant response rating, Corn (corn (Zea mays); [17]) | Plant response rating, Foxtail, Giant [7, 19] | Plant response rating, Velvetleaf [13, 17] | Plant response rating, Nutsedge [15, 19]
80: Plant response rating (0 to 100), Morningglory ([11]; preemergence) | Plant response rating, Pigweed [12, 20]
70: Plant response rating (0 to 100), Cocklebur ([4]; preemergence) | Plant response rating, Morningglory [11, 20] | Plant response rating, Pigweed [12, 17] | Plant response rating, Pigweed [12, 19] | Plant response rating, Nutsedge [15, 17]
40: Plant response rating, Nightshade (Nightshade [1]; [17]) | Plant response rating, Cocklebur [4, 20] | Plant response rating, Corn (corn (Zea mays); [20])

CCCC(C)c1ccn(C2CCN(c3cccc(OCC)c3)C2=O)n1 (stereo not shown) [Compound 129]
60: Plant response rating, Foxtail, Giant [7, 17] | Plant response rating, Pigweed [12, 20] | Plant response rating (0 to 100), Nightshade (Nightshade [16])
100: Plant response rating (0 to 100), Surinam grass ([2]; preemergence) | Plant response rating, Bermudagrass [3, 17] | Plant response rating, Bermudagrass [3, 19] | Plant response rating (0 to 100 where 0 is no effect and 100 is complete control), Bermudagrass ([3]; preemergence) | Plant response rating, Bermudagrass [3, 20] | Plant response rating (0 to 100), Ragweed, Common ([5]; preemergence) | Plant response rating, Ragweed, Common [5, 20] | Plant response rating, Crabgrass [6, 17] | Plant response rating, Crabgrass [6, 19] | Plant response rating (0 to 100), Crabgrass ([6]; preemergence) | Plant response rating, Crabgrass [6, 20] | Plant response rating (0 to 100), Foxtail, Giant ([7]; preemergence) | Plant response rating, Goosegrass [8, 17] | Plant response rating, Goosegrass [8, 19] | Plant response rating (0 to 100), Goosegrass ([8]; preemergence) | Plant response rating, Goosegrass [8, 20] | Plant response rating (0 to 100), Johnsongrass ([9]; preemergence) | Plant response rating, Johnsongrass [9, 20] | Plant response rating, Kochia (kochia (Kochia scoparia); [17]) | Plant response rating (0 to 100), Kochia (kochia (Kochia scoparia); preemergence) | Plant response rating, Kochia (kochia (Kochia scoparia); [20]) | Plant response rating, Lambsquarters [10, 17] | Plant response rating, Lambsquarters [10, 19] | Plant response rating (0 to 100), Lambsquarters ([10]; preemergence) | Plant response rating, Lambsquarters [10, 20] | Plant response rating, Pigweed [12, 17] | Plant response rating (0 to 100), Pigweed ([12]; preemergence) | Plant response rating, Cupgrass, Woolly [14, 17] | Plant response rating (0 to 100), Cupgrass, Woolly ([14]; preemergence) | Plant response rating, Cupgrass, Woolly [14, 20]
20: Plant response rating, Corn (corn (Zea mays); [17]) | Plant response rating, Foxtail, Giant [7, 19] | Plant response rating, Johnsongrass [9, 19] | Plant response rating, Pigweed [12, 19] | Plant response rating, Soybean (soybean (Glycine max); [17]) | Plant response rating (0 to 100), Soybean (soybean (Glycine max); preemergence, Rate 500 g/ha, visual evaluation after 12 to 14 days) | Plant response rating, Soybean (soybean (Glycine max); [20])
10: Plant response rating, Nightshade (Nightshade [1]; [18]) | Plant response rating, Soybean (soybean (Glycine max); [19]) | Plant response rating (0 to 100), Velvetleaf ([13]; preemergence)
90: Plant response rating, Surinam grass [2, 20] | Plant response rating, Cupgrass, Woolly [14, 19] | Plant response rating (0 to 100), Nutsedge ([15]; preemergence)
50: Plant response rating, Nutsedge [15, 20]
80: Plant response rating, Surinam grass [2, 17] | Plant response rating, Surinam grass [2, 19] | Plant response rating, Foxtail, Giant [7, 20]
30: Plant response rating (0 to 100), Corn (corn (Zea mays); preemergence) | Plant response rating, Corn (corn (Zea mays); [20])
0: Plant response rating, Nightshade (Nightshade [1]; Rate 62 g/ha, scale 0 to 100) | Plant response rating, Nightshade (Nightshade [1]; [17]) | Plant response rating, Sunflower (Sunflower) | Plant response rating, Cocklebur [4, 17] | Plant response rating, Cocklebur [4, 19] | Plant response rating (0 to 100), Cocklebur ([4]; preemergence) | Plant response rating, Cocklebur [4, 20] | Plant response rating, Ragweed, Common [5, 17] | Plant response rating, Ragweed, Common [5, 19] | Plant response rating, Corn (corn (Zea mays); [19]) | Plant response rating, Kochia (kochia (Kochia scoparia); [19]) | Plant response rating, Morningglory [11, 17] | Plant response rating, Morningglory [11, 19] | Plant response rating (0 to 100), Morningglory ([11]; preemergence) | Plant response rating, Velvetleaf [13, 17] | Plant response rating, Velvetleaf [13, 19] | Plant response rating, Velvetleaf [13, 20] | Plant response rating, Nutsedge [15, 17] | Plant response rating, Nutsedge [15, 19]
70: Plant response rating, Johnsongrass [9, 17]
